According to patent US7790762B2, “Compounds and methods for thiol-containing compound efflux and cancer treatment” (National Jewish Health, priority 2002, dated 2010):

Key:
[1] = system: A549 cells; assay: Intracellular GSH levels by HPLC-EC in A549 cells; assay type: cell-based, human; conditions: for activity at 75 µM: Homo sapiens, read-out: Int. GSH % con.; for activity at 75 µM / Int. GSH % con.: 24 hours treatment
Procedure: (§1) Cell lines and culture conditions. Human lung epithelial cancer (A549), human leukemia HL-60 and human prostate (PC-3) tumor cells were purchased from ATCC (Manassas, Va.). A549 and PC-3 cells were grown in Ham's F12 medium (F12) and Kaighn's modification of Ham's F12 medium (F12K) with 2 mM L-glutamine (ATCC), respectively, supplemented with 10% fetal bovine serum (FBS) and 5% pen/strep (10,000 unit, Cellgro). HL-60 cells were grown in Iscove's modified Dulbecco's medium with 4 mM L-glutamine (ATCC) supplemented with 20% FBS and 5% pen/strep. Cell were grown in T-75 flask at 37° C. and 5% CO2 air atmosphere and in 24-well plates for GSH levels and LDH release measurements.
(§2) Intracellular levels of GSH. Intracellular GSH levels can be determined by HPLC-EC. Cultured cells from 24-well plates were washed once with 1 ml of PBS and then re-suspended in 0.5 ml of distilled water with 40 μM of digitonin (2 mM stock solution in DMSO) for 30 min at room temperature. Then, 50 μl of 10% meta-phosphoric acid were added (1% final concentration), the samples were sonicated for 2 min, centrifuged at 20,000 g for 10 min, and 0.2 ml of supernatant placed in vials for HPLC analysis. […] The flow rate was […]. The retention time for GSH in these conditions was 7.5 min. The HPLC instrument was from ESA, Inc. (Chelmsford, Mass.), equipped with an autosampler (model 540) and a Coul array detector (model 5600A). The potential applied was +0.75 V vs. H/Pd electrode, and the injection volume 5 μl.

[2] = system: HL-60 cells; assay: Intracellular GSH levels by HPLC-EC in HL-60 cells; assay type: cell-based, human; conditions: 24 hours treatment; for activity at 75 µM: Homo sapiens, read-out: Int. GSH % con.
Procedure: as §1, §2

[3] = system: PC-3 cells; assay: Intracellular GSH levels by HPLC-EC in PC-3 cells; assay type: cell-based, human; conditions: for activity at 50 µM: Homo sapiens, read-out: Int. GSH % con.; for activity at 50 µM / Int. GSH % con.: 24 hours treatment
Procedure: as §1, §2

[4] = system: A549 cells; assay: Cytotoxicity as LDH release in A549 cells; assay type: cell-based, human; conditions: for LDH release, % of control at 75 µM: Homo sapiens, read-out: LDH rel. % con.; for LDH release, % of control at 75 µM / LDH rel. % con.: A549, 75 μM, 48 hours treatment
Procedure: as §1
(§3) Assessment of cytotoxicity. In one exemplary method, membrane integrity of A549, HL-60 and PC-3 cells was used as an index of drug-induced cytotoxicity, and was assessed by monitoring the release of cytosolic lactate dehydrogenase (LDH). LDH activity was measured in the culture medium and cell lysates (50 mM HEPES, Triton X-100 0.5%, pH 7) using a plate reader format as previously described (41). Briefly, 5 μl of cell culture supernatant and lysates were incubated with 0.24 mM NADH in a Tris/NaCl pH 7.2 buffer in 96-well plates for 5 min at 25° C. The reaction was started by the addition of 9.8 mM pyruvate and the consumption of NADH followed at 340 nm for 5 min at 30° C. Percent LDH release was calculated by the following: (supernatant LDH/supernatant LDH+lysate LDH)×100.

[5] = system: HL-60 cells; assay: Cytotoxicity as LDH release in HL-60 cells; assay type: cell-based, human; conditions: 48 hours treatment; for LDH release, % of control at 50 µM: Homo sapiens, read-out: LDH rel. % con.
Procedure: as §1, §3

[6] = system: PC-3 cells; assay: Cytotoxicity as LDH release in PC-3 cells; assay type: cell-based, human; conditions: PC-3, 50 μM, 48 hours treatment; for LDH release, % of control at 50 µM: Homo sapiens, read-out: LDH rel. % con.
Procedure: as §1, §3

[7] = system: epithelial cells; assay: Effects of compounds on extracellular GSH transport (Table 3); assay type: cell-based; conditions: Epithelial cell, read-out: % Increase Over Control (extracellular GSH)

SMILES: O=c1c(O)c(-c2ccc(O)cc2O)oc2cc(O)cc(O)c12 [Morin]
- activity at 75 µM ([1]; A549, 75 μM): 72%
- activity at 75 µM ([2]; HL-60, 75 μM): 86%
- activity at 50 µM ([3]; PC-3, 50 μM): 125%
- effect on intracellular GSH (words) ([3]; PC-3 cells, 50-75 μM): stimulated an increase in intracellular GSH
- LDH release, % of control at 75 µM [4]: 112%
- LDH release, % of control at 50 µM ([5]; HL-60, 50 μM): 97%
- LDH release, % of control at 50 µM [6]: 80%

SMILES: O=C(/C=C/c1ccccc1)c1cc(O)ccc1O [2′,5′-DHC, 2′ 5′ dihydroxychalcone]
- Intracellular GSH levels, % compared to control ([1]; A549, 25 μM, 2 h): <5%
- Intracellular GSH levels, % compared to control ([1]; A549, 25 μM, 4 h): <5%
- Int. GSH % con. ([1]; A549, 25 μM): <5 % con.
- Int. GSH % con. ([2]; HL-60, 25 μM): <5 % con.
- Int. GSH % con. ([3]; PC-3, 25 μM): 67 % con.
- LDH rel. % con. [4]: 273 % con.
- effect on the toxicities of rotenone (50 μM), curcumin (50 μM) and 2-ME (50 μM) ([4]; A549 cells, 48 hours, compound 10 μM (FIG. 20D)): potentiated
- LDH rel. % con. ([5]; HL-60, 50 μM): 310 % con.
- LDH rel. % con. [6]: 246 % con.

SMILES: CCCOC(=O)c1cc(O)c(O)c(O)c1 [Propyl Gallate, 3,4,5-trihydroxy-benzoic acid propyl ester]
- activation at 50 µM [7]: 136%

SMILES: O=C(O)c1cc(/N=N/c2ccc(S(=O)(=O)Nc3ccccn3)cc2)ccc1O [Sulfasalazine, reference compound]
- activation at 50 µM [7]: 211%

SMILES: O=c1c(O)c(-c2cc(O)c(O)c(O)c2)oc2cc(O)cc(O)c12 [Myricetin]
- Int. GSH % con. ([1]; A549, 75 μM): 55 % con.
- Int. GSH % con. ([2]; HL-60, 75 μM): 27 % con.
- Int. GSH % con. ([3]; PC-3, 50 μM): 111 % con.
- LDH rel. % con. [4]: 206 % con.
- LDH rel. % con. ([5]; HL-60, 50 μM): 139 % con.
- LDH rel. % con. [6]: 93 % con.

SMILES: COc1ccc2cc3[n+](cc2c1OC)CCc1cc2c(cc1-3)OCO2 [Berberine]
- activation at 100 µM ([7]; 100 μM): 170%

SMILES: C[C@]12CC[C@@H]3c4cc(O)c(O)cc4CC[C@H]3[C@@H]1CC[C@@H]2O [2-HE, 2-hydroxyestradiol, reference compound]
- Intracellular GSH levels, % compared to control ([1]; A549, 25 μM, 2 h): 69.0 ± 0.5%
- Int. GSH % con. ([1]; A549, 25 μM): <5 % con.
- Int. GSH % con. ([2]; HL-60, 25 μM): 120 % con.
- Int. GSH % con. ([3]; PC-3, 25 μM): 228 % con.
- LDH rel. % con. [4]: 150 % con.
- LDH rel. % con. ([5]; HL-60, 25 μM): 250 % con.
- LDH rel. % con. [6]: 113 % con.

SMILES: O=C(O)c1cc(S(=O)(=O)O)ccc1O [5-Sulfosalicylic Acid]
- activation at 50 µM [7]: 142%

SMILES: Oc1cc(O)c2cc(O)c(-c3ccc(O)c(O)c3)[o+]c2c1 [Cyanidin]
- activity at 75 µM ([1]; A549, 75 μM): 82%
- activity at 75 µM ([2]; HL-60, 75 μM): 95%
- activity at 50 µM ([3]; PC-3, 50 μM): 120%
- LDH release, % of control at 75 µM [4]: 110%
- LDH release, % of control at 50 µM ([5]; HL-60, 50 μM): 110%
- LDH release, % of control at 50 µM [6]: 93%
